Test results from patent publication US20180313843A1, “SAMHD1 MODULATION FOR TREATING RESISTANCE TO CANCER THERAPY” (priority 2015, published 2018).
≈ marks a conversion by molar mass, not a printed value.

Assays:
THP-1 −/− = assay: Cell viability, Ara-C with or without 3-DU and other NAs, SAMHD1 knock-out; type: cell-based, human
Procedure: THP-1 CRISP/Cas9 control and SAMHD1 knock-out cells were provided by Prof. Veit Hornung and cultivated in RPMI supplemented with 10% FCS, 100 IU/ml penicillin, and […] streptomycin. PDX cells were thawed and cultivated as previously described (Vick, 2015).
(§1) Cell viability assay. Cell viability of the AML cell lines and primary AML cultures were determined by the 3-(4,5-dimethylthiazol-2-yl)-2,5-diphenyltetrazolium bromide (MTT) dye reduction assay after 96 hour incubation as described previously (reference 7). Due to lower cell proliferation frequencies of the primary cells the CellTiter-Glo® Luminescent Cell Viability Assay (Promega) was used according to manufacturer's instruction. Here, the number of viable cells was determined 96 hours post treatment based on the quantification of the ATP levels.

HEL SAMHD1 wt = assay: Cell viability, Ara-C with or without 3-DU, SAMHD1 wt over-expression; type: cell-based, human; conditions: for dependence of anti-leukemic activity on expression levels of SAMHD1: THP-1 (−/−) vs (+/+), AML panel and HEL versus HEL SAMHD1 wt cells
[1] = test system: intracellular Ara-CTP, CTP and dCTP levels; assay: Effect of 3-DU and Ara-C on intracellular triphosphate levels; type: cell-based; conditions: 3-DU treatment in combination with Ara-C
Procedure: dNTP measurement. 5×10^5 cells were treated with 10 μg/ml Ara-C 13C3 (Santa Cruz) and incubated at 37° C. in a humidified 5% CO2 incubator for 6 hours. Subsequently, cells were washed twice in 1×PBS, pelleted and stored at −20° C. until measurement. The samples were analyzed at the Institute of Clinical Pharmacology (Goethe University Frankfurt) by liquid chromatography-electrospray ionization-tandem mass spectrometry as previously described (reference 8).
Briefly, the analytes were extracted by protein precipitation with methanol. […] Additional to the analytes reported in the publication, 13C3-Ara-CMP, 13C3-Ara-CDP and 13C3-Ara-CTP were quantified using the validated method and cytidine-^13C9, ^15N3-5′-triphosphate as internal standard (IS). The precursor-to-product ion transitions used as quantifiers were m/z 327.0→115.1 for 13C3-Ara-CMP, m/z 407.0→115.1 for 13C3-Ara-CDP and m/z 487.0→115.1 for 13C3-Ara-CTP. A calibration curve was constructed for the quantitation of 13C3-Ara-CMP while no calibration standards were commercially available for 13C3-Ara-CDP and 13C3-Ara-CTP. For this reason, these analytes were quantified semiquantitatively by comparing the peak area ratios (analyte/IS) determined in the differently treated samples. […]

SAMHD1 = target: T1, SAMHD1 (Homo sapiens, UniProt Q9Y3Z3); assay: Enzymatic in vitro assay with bacterially expressed SAMHD1 protein (triphosphohydrolase activity); type: biochemical; conditions: dGTP used as activator of SAMHD1
T1 construct: made in house
T1 sequence (Q9Y3Z3 whole entry): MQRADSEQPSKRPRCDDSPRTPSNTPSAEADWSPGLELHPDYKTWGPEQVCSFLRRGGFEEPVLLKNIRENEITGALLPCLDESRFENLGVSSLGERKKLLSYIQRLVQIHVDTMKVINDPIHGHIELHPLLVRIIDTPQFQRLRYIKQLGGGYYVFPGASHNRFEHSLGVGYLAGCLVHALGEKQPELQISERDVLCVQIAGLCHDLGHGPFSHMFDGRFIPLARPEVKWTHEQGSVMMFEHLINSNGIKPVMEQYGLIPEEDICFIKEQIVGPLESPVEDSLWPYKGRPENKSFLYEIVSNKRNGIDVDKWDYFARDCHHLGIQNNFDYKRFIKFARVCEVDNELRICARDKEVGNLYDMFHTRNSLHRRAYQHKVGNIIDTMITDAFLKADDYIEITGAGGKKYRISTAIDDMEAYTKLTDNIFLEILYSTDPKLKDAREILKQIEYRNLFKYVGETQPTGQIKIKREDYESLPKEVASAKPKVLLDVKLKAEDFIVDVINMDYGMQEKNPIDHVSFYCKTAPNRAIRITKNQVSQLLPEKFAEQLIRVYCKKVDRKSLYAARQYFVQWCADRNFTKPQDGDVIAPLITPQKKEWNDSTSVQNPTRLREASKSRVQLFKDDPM
Source text: SAMHD1 hydrolyzes intracellular dNTPs resulting in a reduction of intracellular dNTP pools.

AML cell lines = assay: Cell viability assay (MTT), cytarabine in panel of AML cell lines; type: cell-based; conditions: Homo sapiens, read-out: IC50 values (concentrations inhibiting 50% of cell growth) of cytarabine; range over AML cell lines
Procedure: as §1

OCI-AML3 shSAMHD1 = assay: Cell viability, Ara-C with or without 3-DU, SAMHD1 knock-down; type: cell-based, human; conditions: OCI-AML-3, SAMHD1 shRNA compared to control shRNA
BFTC 905 = assay: Ara-C/SAMHD1-inhibitor combination treatment, urothelial carcinoma cells; type: cell-based; conditions: Homo sapiens, BFTC-905, read-out: IC50 value Ara-C
SIG-M5 cells = assay: Cytarabine toxicity after SAMHD1 shRNA knock-down; type: cell-based, human; conditions: SIG-M5, SAMHD1 shRNA compared to control shRNA
[2] = test system: THP-1 (−/−) and THP-1 (+/+) cells; assay: Cytarabine triphosphate measurement by liquid chromatography tandem mass spectrometry; type: cell-based, human; conditions: 10 μg/ml cytarabine for 6 h
Procedure: dNTP measurement. […] Subsequently, cells were washed twice in 1×PBS, pelleted and stored at −20° C. until measurement. The samples were analyzed at the Institute of Clinical Pharmacology (Goethe University Frankfurt) by liquid chromatography-electrospray ionization-tandem mass spectrometry as previously described (reference 8).
Briefly, the analytes were extracted by protein precipitation with methanol. An anion exchange HPLC column (BioBasic AX, Thermo) was used for the chromatographic separation and a 5500 QTrap (Sciex, Darmstadt, Germany) was used as analyzer, operating as triple quadrupole in positive multiple reaction monitoring (MRM) mode. Additional to the analytes reported in the publication, 13C3-Ara-CMP, 13C3-Ara-CDP and 13C3-Ara-CTP were quantified using the validated method and cytidine-^13C9, ^15N3-5′-triphosphate as internal standard (IS). The precursor-to-product ion transitions used as quantifiers were m/z 327.0→115.1 for 13C3-Ara-CMP, m/z 407.0→115.1 for 13C3-Ara-CDP and m/z 487.0→115.1 for 13C3-Ara-CTP. A calibration curve was constructed for the quantitation of 13C3-Ara-CMP while no calibration standards were commercially available for 13C3-Ara-CDP and 13C3-Ara-CTP. For this reason, these analytes were quantified semiquantitatively by comparing the peak area ratios (analyte/IS) determined in the differently treated samples.

THP-1 cells = assay: Cytotoxic effects of cytarabine in VLP-treated THP-1 cells; type: cell-based, human; conditions: Vpx-VLPs treated THP-1 cells
[3] = test system: HELrAra-C, HL-60rAra-C and Molm-13rAra-C; assay: Cytarabine cytotoxicity in Ara-C resistant AML sublines; type: cell-based, human
Procedure: Ara-C resistant cell lines THP-1, HEL, HL-60, Molm13, and Molt4 were established by continuous exposure to increasing drug concentrations and are part of the Resistant Cancer Cell Line (RCCL) collection (http://www.kent.ac.uk/stms/cmp/RCCL/RCCLabout). The generation of resistant cell lines required 1 to 2 years, depending on the cell line used. All cell lines were maintained in IMDM supplemented with 10% FCS (SIG-M5 20% FCS), […] L-Glutamine, 100 IU/ml penicillin, and […] streptomycin at 37° C. in a humidified 5% CO2 incubator. 293T cells were maintained as previously described (Keppler et al).
as §1
Remarkably, expression levels of SAMHD1 were increased in resistant cells relative to the parental cell lines (FIGS. 8A and B).

glioma cell line U251-MG = assay: Effect of Vpx-VLPs on cytotoxic activity of cytarabine in glioma cells; type: cell-based; conditions: U251-MG treated with Vpx-VLPs

## COc1nc(N)nc2c1ncn2[C@@H]1O[C@H](CO)[C@@H](O)[C@@H]1O [nelarabine]
THP-1 −/−
  IC50 lower in THP-1 (−/−) cells than in THP-1 (+/+) cells: 5 fold
HEL SAMHD1 wt
  dependence of anti-leukemic activity on expression levels of SAMHD1: depends on expression levels of SAMHD1 albeit to a lesser extent than for cytarabine

## O=C1C=CN([C@@H]2O[C@H](CO)[C@@H](O)[C@H]2O)C(=O)C1 [3-DU, 3-deazauridin]
[1]
  intracellular Ara-CTP levels: strongly increased
  intracellular cytodine-triphosphate (CTP) and dCTP levels: reducing

## Nc1nc(Cl)nc2c1ncn2[C@@H]1O[C@H](CO)[C@@H](O)[C@@H]1F [clofarabine]
THP-1 −/−
  IC50 lower in THP-1 (−/−) cells than in THP-1 (+/+) cells: 2 fold
HEL SAMHD1 wt
  dependence of anti-leukemic activity on expression levels of SAMHD1: depends on expression levels of SAMHD1 albeit to a lesser extent than for cytarabine

## Nc1nc(F)nc2c1ncn2[C@@H]1O[C@H](CO)[C@@H](O)[C@@H]1O [fludarabine]
THP-1 −/−
  IC50 lower in THP-1 (−/−) cells than in THP-1 (+/+) cells: 5 fold

## Nc1nc2c(ncn2[C@@H]2O[C@H](CO)[C@@H](O)[C@@H]2O)c(=O)[nH]1 [Ara-G]
HEL SAMHD1 wt
  dependence of anti-leukemic activity on expression levels of SAMHD1: depends on expression levels of SAMHD1 albeit to a lesser extent than for cytarabine

## cytarabine triphosphate
SAMHD1
  substrate or activator of SAMHD1's triphosphohydrolase activity: direct substrate, but not as an activator

## Nc1ccn([C@@H]2O[C@H](CO)[C@@H](O)[C@@H]2O)c(=O)n1 [Ara-C, cytarabine]
AML cell lines
  IC50: 0.0078 to 0.56 µg/mL (≈ 0.0321 to 2.3 µM)
THP-1 −/−; THP-1 (−/−) relative to control THP-1 (+/+)
  increase of cytarabine toxicity in SAMHD1 knock-out cells: about 50 fold
OCI-AML3 shSAMHD1
  increase of cytarabine toxicity by SAMHD1 knock-down: about 6 fold
HEL SAMHD1 wt; HEL wt SAMHD1 compared to parental HEL or HEL SAMHD1 D207N
  decrease of sensitivity to cytarabine by wt SAMHD1 over-expression: about 70 fold
BFTC 905
  IC50: 0.021 µg/mL
SIG-M5 cells
  increase of cytarabine toxicity by SAMHD1 knock-down: ~9 fold
[2]
  cytarabine triphosphate amounts accumulated, THP-1(−/−) compared with THP-1(+/+): About 20 fold
THP-1 cells
  increase of cytarabine's anti-leukemic activity: about 20 fold
[3]; Homo sapiens, read-out: IC50 values of cytarabine, range over highly resistant sublines of HEL, HL-60 and MOLM-13
  IC50: 24 to 94 µg/mL (≈ 98.7 to 386 µM)
[3]; all three cell lines tested
  toxicity of cytarabine after reduction of SAMHD1 levels using Vpx-VLPs: increased toxicity
Glioma cell line U251-MG
  enhancement of the anti-tumoral activity of cytarabine: up to 10 fold
